In patent US20050065136A1, “Methods and compositions for the treatment of infertility using dilute hormone solutions” (priority 2003, published 2005):

Tests used:
Assay type in all cases: in vivo, human
[1] = Clinical responses of hormone allergy symptoms to intradermal administration of progesterone; details: dilute doses, sublingually or intradermally
Protocol: Patients experiencing several hormone allergy symptoms experienced relief when administered dilute doses of progesterone either sublingually or intradermally. […] The symptoms measured were irritation or pain in the neck, nose, eyes, throat, ear, skin, back, hips, upper extremities and lower extremities, headache, and shortness of breath. The patients were administered 0.5 mg of progesterone intradermally. Patients were designated as responding patients in Table 2 if they experienced any relief of the indicated symptom. Patients were also asked to estimate the amount of improvement in the symptom, an average of which is indicated as the % improvement in responding patients. In Table 3 the probability that positive results (i.e. patients responding to treatment) were due to random effects was calculated using standard statistical analysis of patient tests. It was assumed that if the treatment has no effect, there is a 50% chance that a patient will indicate a positive response and a 50% chance that a patient will indicate a negative response. From this assumption, coupled with the actual data, one may calculate the probability that positive responses are due to an actual effect of the treatment and not simply random effects. In general, results with a less than 1% chance of being random are considered highly significant. […]

[2] = Symptom relief on a 0 to 10 scale in women with acute asthma after intradermal progesterone
Protocol: To test this hypothesis, 142 women with acute asthma were asked to evaluate the severity of their symptoms using an eleven point scale. Ten was assigned to the most severe symptoms, while 0 was assigned to an absence of symptoms. Immediately after assessing their symptoms on this scale, patents were administered 0.5 mg of progesterone by intradermal injection. Approximately 15 to 30 seconds after the injection was administered, each patient was asked if her symptoms were worse, better, or unchanged. Each patient was also asked to rate her present symptoms on the same 0 to 10 scale. […] Of the 142 patients tested 129 (91%) positively responded to the treatment. Using the random effects calculations described in Example 3, this correlates to a less than 0.1% chance that the results are random. Thus the results may be considered highly significant.

[3] = Relief of symptoms with intradermal estrogen in patients not relieved by progesterone; details: 0.4 mg intradermally; many patients whose symptoms are not relieved using progesterone
[4] = 0.5 mg intradermal injection, 142 women with acute asthma, 15 to 30 seconds after injection

CC(=O)[C@H]1CC[C@H]2[C@@H]3CCC4=CC(=O)CC[C@]4(C)[C@H]3CC[C@]12C [Progesterone]
effectiveness in producing symptom relief as compared to several other antigens [1]: most effective
speed of relief ([1]; in most patients): very quickly
average symptomatic relief for those who reported some response ([2]; 0 to 10 scale, responders only): 5 points
average symptomatic relief for all patients ([2]; 0 to 10 scale, responding and not responding patients): 3.4 points
% of patients reporting 100% relief of asthma symptoms ([2]; 0.5 mg intradermal injection): 28%
average reduction in symptoms relative to the maximum individual patient score ([2]; 0.5 mg intradermal injection): 62%
% of patients positively responding to the treatment [2, 4]: 91%
number of patients positively responding to the treatment [2, 4]: 129
number of patients reporting 100% relief of asthma symptoms ([2]; 0.5 mg intradermal injection, of the 129 patients with symptom relief): 40

estrogen
relief of symptoms [3]: experience relief
